According to US20230285405A1, “Pharmaceuticals for Treating or Preventing Nidoviruses and Picornaviruses” (priority 2020, published 2023):
Read-outs that look alike come from different tables or passages of the source.

Key:
A549-mRuby cells = test: Drug screening: effect on cell growth (cell number day 4 / day 0); conditions: 10 μM drug; for Growth_1: number of cells at day 4 divided by number of cells at day 0 / toxic_1: repeat #1; for Growth_2: number of cells at day 4 divided by number of cells at day 0 / toxic_2: repeat #2
How it was run: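 Growth was scored as day 4/day 0 cell count from images of OC43-infected (MOI 0.3) A549-mRuby nuclear-reporter cells. Compounds were added at 10 μM final after a 1 h infection at 33° C, followed by 4 days of culture at 33° C in two independent screens.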

SARS-CoV-2 [1] = test: microbe, parasite or virus in culture; type: cell-based, SARS-CoV-2 (nCoV/Washington/1/2020)
OC43 [2] = test: Drug screening: OC43 nucleoprotein staining in infected A549-mRuby cells; type: cell-based, human beta coronavirus OC43; conditions: for activity at 10 µM: Betacoronavirus 1, OC43, 96 h
How it was run: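 Repurposing screen: drugs at 10 μM final added 1 h after OC43 infection (MOI 0.3) of H2B-mRuby A549 cells, 4-day incubation at 33° C. Cell counts imaged at day 0 and day 4; nucleoprotein staining per cell normalized to untreated infected wells, hit threshold >3 SD in duplicate screens, non-toxic.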

SARS-CoV-2 3CLpro = target: T1, SARS-CoV-2 3CLpro (Severe acute respiratory syndrome coronavirus 2, UniProt P0DTD1); type: cell-based
T1 construct: the SARS-CoV-2 main protease (also known as 3CLpro, Mpro and nsp5); expressed in transfected cells; host or cells: 293T cells

OC43 [3] = test: Dose-response analysis of OC43 infection; type: cell-based, human beta coronavirus OC43
Method: Dose-response analysis of OC43 infection was done similarly to the drug screening, except cells were seeded at a concentration of 5,000 cells per well and the media contained 2% BCS instead of 10% BCS. OC43 staining was performed 2 days after infection and analyzed similarly to what was described for the drug screening. A sigmoid fit was used to extract EC50 values using Matlab.

SARS-CoV-2 [4] = test: SARS-CoV-2 plaque titers (progeny production); type: cell-based, SARS-CoV-2 (nCoV/Washington/1/2020); conditions: 10 μM drug for 2 hours, MOI 0.5, supernatant collected 2 days after
Method: For SARS-CoV-2 plaque titers, cell supernatants from the infection described above were serially diluted (10-fold steps were used) and used to infect Vero E6 cells for 1 hour. Inoculum was removed and 1.25% methylcellulose DMEM solution was added to the cells and incubated for 3 days. Plates were fixed in 1:10 formalin for 1 hour, stained with crystal violet for 1 hour and were counted to determine plaque forming units (PFU)/ml.
The effect of several drugs on the production of viable progeny viruses was evaluated. Cells were treated with 10 μM of the drugs for 2 hours, infected at an MOI of 0.5 and the supernatant collected 2 days after for titration (FIG. 2C). Cepharanthine and azelastine completely eliminated SARS-CoV-2 progeny production (>5-logs decrease), while flupenthixol and desloratidine reduced viral titers by about 2-logs. Ultimately, the screen identified 20 safe-in-human drugs that are able to inhibit both OC43 and SARS-CoV-2 infection in vitro.

[5] = 10 μM drug, MOI 0.3, 4 days, OC43 staining normalized to no-drug controls, mean of the two screen repeats
[6] = 10 μM drug, MOI 0.3, 4 days, normalized to no-drug controls in the same plate, repeat #1
[7] = 10 μM drug, MOI 0.3, 4 days, normalized to no-drug controls in the same plate, repeat #2

Molecule | Growth_1: number of cells at day 4 divided by number of cells at day 0 (A549-mRuby cells) | toxic_1 (A549-mRuby cells) | Growth_2: number of cells at day 4 divided by number of cells at day 0 (A549-mRuby cells) | toxic_2 (A549-mRuby cells) | OC43_mean (OC43 [2]; [5]) | OC43_1: % staining of OC43 in screen repeat #1 (OC43 [2]; [6]) | OC43_2: % staining of OC43 in screen repeat #2 (OC43 [2]; [7]) | hit_1 (OC43 [2]; 10 μM drug, repeat #1) | hit_2 (OC43 [2]; 10 μM drug, repeat #2) | 3CLpro activity: percentage of GFP-expressing cells (in words) (SARS-CoV-2 3CLpro) | decrease of SARS-CoV-2 viral titers (progeny production) (SARS-CoV-2 [4]) | also measured
Bafetinib [Bafetinib (INNO-406)] | 5.0 | 0 | 3.6 | 0 | 13.4% | 17.2% | 9.6% | 1 | 1 | statistically significant decrease | – | EC50 (SARS-CoV-2 [1]; read-out: EC50 SARS2): 2200 nM; EC50 (OC43 [3]; A549-mRuby cells, staining 2 days after infection, read-out: EC50 OC43): 2100 nM
Clc1ccc2c(c1)CCc1cccnc1C2=C1CCNCC1 [Desloratadine] | 4.8 | 0 | 4.4 | 0 | – | – | – | 1 | 1 | – | about 2 logs | activity at 10 µM (OC43 [2]; 10 μM drug, MOI 0.3, 4 days, OC43 staining normalized to no-drug controls, mean of the two screen repeats, read-out: OC43_mean): 19.3%; activity at 10 µM (OC43 [2]; 10 μM drug, MOI 0.3, 4 days, normalized to no-drug controls in the same plate, repeat #1, read-out: OC43_1: % staining of OC43 in screen repeat #1): 13.2%; activity at 10 µM (OC43 [2]; 10 μM drug, MOI 0.3, 4 days, normalized to no-drug controls in the same plate, repeat #2, read-out: OC43_2: % staining of OC43 in screen repeat #2): 25.4%
Cl.Cl.OCCN1CCN(CCC=C2c3ccccc3Sc3ccc(C(F)(F)F)cc32)CC1 (mixture of isomers) [Flupenthixol dihydrochloride] | 2.1 | 0 | 3.3 | 0 | 21.0% | – | – | – | – | – | about 2 logs | OC43_1: % staining of OC43 in screen repeat #1 (OC43 [2]): 8.7%; OC43_2: % staining of OC43 in screen repeat #2 (OC43 [2]): 33.3%; hit_1 (OC43 [2]): 1; hit_2 (OC43 [2]): 1
CS(=O)(=O)CCNCc1ccc(-c2ccc3ncnc(Nc4ccc(OCc5cccc(F)c5)c(Cl)c4)c3c2)o1 [Lapatinib] | 3.8 | – | 4.4 | – | 9.7% | 5.2% | 14.1% | – | – | statistically significant decrease | – | EC50 (SARS-CoV-2 [1]; Severe acute respiratory syndrome coronavirus 2, read-out: EC50 SARS2): 1600 nM; EC50 (OC43 [3]; Betacoronavirus 1, OC43, 48 h, read-out: EC50 OC43, A549-mRuby cells, staining 2 days after infection): 3100 nM
